This note sets out measurements from ChEMBL document CHEMBL1150409, “Development of paramagnetic probes for molecular recognition studies in protein kinases” (J Med Chem, 2008).

The structures appear in SMILES notation. Activity calls are given as the source filed them. The rule behind the calls is not given here. Peptide text beside a SMILES is read from it. * marks the point of attachment. X1 = O=C(NCCCN*)c1ccc(-c2n[nH]c3ccccc23)cc1

Assay [1] deals with Mitogen-activated protein kinase 8 (Homo sapiens, UniProt P45983). Nature of the assay: Inhibition of JNK1 by TR-FRET assay.
Sequence of Mitogen-activated protein kinase 8 (P45983 whole entry, the tested form may be a part): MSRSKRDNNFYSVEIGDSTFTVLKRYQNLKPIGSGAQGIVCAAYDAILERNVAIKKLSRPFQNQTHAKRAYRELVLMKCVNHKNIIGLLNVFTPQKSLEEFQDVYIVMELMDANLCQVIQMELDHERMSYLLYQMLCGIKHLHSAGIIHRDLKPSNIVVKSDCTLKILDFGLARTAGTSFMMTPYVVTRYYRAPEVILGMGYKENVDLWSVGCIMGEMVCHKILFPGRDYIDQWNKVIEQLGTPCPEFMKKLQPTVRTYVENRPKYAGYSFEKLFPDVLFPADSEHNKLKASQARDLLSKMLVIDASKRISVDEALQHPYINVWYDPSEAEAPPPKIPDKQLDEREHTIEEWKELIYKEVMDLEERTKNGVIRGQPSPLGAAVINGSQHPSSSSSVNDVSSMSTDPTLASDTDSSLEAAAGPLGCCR
The target in assay [2] is Mitogen-activated protein kinase 9 (Homo sapiens) (UniProt P45984). Nature of the assay: Displacement of biotin-labeled pep-JIP1 from GST fused JNK2 upto 200 uM by DELFIA assay.
Sequence of Mitogen-activated protein kinase 9 (Homo sapiens) (P45984 whole entry, looked up, the tested form may be a part): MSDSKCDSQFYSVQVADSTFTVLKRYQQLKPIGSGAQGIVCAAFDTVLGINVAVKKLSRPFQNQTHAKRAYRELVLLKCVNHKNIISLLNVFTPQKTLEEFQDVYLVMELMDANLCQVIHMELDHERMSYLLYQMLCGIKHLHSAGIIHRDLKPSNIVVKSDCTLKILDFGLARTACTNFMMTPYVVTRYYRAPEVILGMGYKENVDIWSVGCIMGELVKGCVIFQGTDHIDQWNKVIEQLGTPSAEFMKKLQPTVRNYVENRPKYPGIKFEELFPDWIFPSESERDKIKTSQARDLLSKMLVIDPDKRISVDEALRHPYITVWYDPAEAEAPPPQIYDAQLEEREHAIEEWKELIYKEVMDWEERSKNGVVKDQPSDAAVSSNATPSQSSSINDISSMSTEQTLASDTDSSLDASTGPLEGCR
For assay [3] the target is unchanged. Briefly: Displacement of biotin-labeled pep-JIP1 from GST fused JNK2 by DELFIA assay.
Assay [4] concerns the target Mitogen-activated protein kinase 14 (Homo sapiens) (UniProt Q16539). Nature of the assay: Inhibition of MAPK p38alpha upto 100 uM.

In general, IC50 refers to the concentration that gives 50% inhibition. A low value points to greater potency.

Sequence of Mitogen-activated protein kinase 14 (Homo sapiens) (Q16539 whole entry): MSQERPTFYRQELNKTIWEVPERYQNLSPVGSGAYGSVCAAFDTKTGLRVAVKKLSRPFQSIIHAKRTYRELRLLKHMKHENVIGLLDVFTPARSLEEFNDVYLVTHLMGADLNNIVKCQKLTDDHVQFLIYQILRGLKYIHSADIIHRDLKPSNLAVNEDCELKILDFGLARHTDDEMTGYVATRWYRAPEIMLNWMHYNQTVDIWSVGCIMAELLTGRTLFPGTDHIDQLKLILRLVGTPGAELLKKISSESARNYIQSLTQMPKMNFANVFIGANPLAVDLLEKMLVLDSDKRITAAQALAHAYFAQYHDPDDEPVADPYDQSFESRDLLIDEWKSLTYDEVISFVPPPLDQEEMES

In assay [1], `CC1(C)CC(NC(=O)CCCNC(=O)c2ccc(-c3n[nH]c4ccccc34)cc2)CC(C)(C)N1O` displayed an IC50 of 1200 nM.

With `CC(=O)N[C@@H](CC(C)C)C(=O)N[C@@H](CC(N)=O)C(=O)N[C@@H](CC(C)C)C(=O)O` (Ac-Leu-Asn-Leu-OH), in assay [2], the result was inactive.

The compound `O=C(O)CCCNC(=O)c1ccc(-c2n[nH]c3ccccc23)cc1` yielded an IC50 in assay [1] of 1400 nM.

As to `CC(=O)N[C@@H](CC(C)C)C(=O)N[C@@H](CC(N)=O)C(=O)N[C@@H](CC(C)C)C(=O)NCC(=O)NCC(=O)O` (Ac-LNLGG-OH), the result in assay [2] was inactive.

Turning to `CC(=O)N[C@@H](CCCNC(=N)N)C(=O)N1CCC[C@H]1C(=O)N[C@H](C(=O)N[C@H](C(=O)N[C@@H](CC(C)C)C(=O)N[C@@H](CC(N)=O)C(=O)N[C@@H](CC(C)C)C(=O)O)[C@@H](C)O)[C@@H](C)O` (Ac-RPTTLNL-OH), in assay [3], the IC50 was 53000 nM.

With `CC(=O)N[C@@H](CC(C)C)C(=O)N[C@@H](CC(N)=O)C(=O)N[C@@H](CC(C)C)C(=O)NCC(=O)NCC(=O)NCCCNC(=O)c1ccc(-c2n[nH]c3ccccc23)cc1` (Ac-LNLGG-X1), the IC50 is 20 nM in assay [3] and 295 nM in assay [1]. Moreover, the result in assay [4] was inactive.
